Marks after values point to notes of the source that are not given here.
Key:
Set-up in all cases: species or system human
[1] = Sweat malodor model (IVA), panel mean rank of odor intensity (Example V); details: for mean rank of the odor intensity: 1 = least intense, 5 = most intense, set of racemate, S and R
Excerpt: (§1) Establishment of a Model of Sweat Malodor: It is known that the perspirative malodors of human body, particularly sweat, are associated with the production of several unpleasant smelling organic acids, particularly isovaleric acid (“IVA”). The commercial sample of this malodorous material (commercially available at Sigma-Aldrich Inc.) was thus used as a model compound to assess the effectiveness of sweat malodor counteractants.
(§2) Preparation of Test Samples: The VEILEX™ mixtures (VEILEX™ I, VEILEX™ II, and VEILEX™ III, commercially available from IFF) and the enantiomeric compounds of the present invention (all with optical purity over 80% ee, synthesized as above) were evaluated for sweat malodor counteracting effectiveness. Different concentrations of VEILEX™ mixtures and their enantiomeric counterparts were used based on the priori usage levels. Additionally, the overall intensity of 1-cyclohexylethanol (1% in diethyl phthalate) was noticeably greater than the other two compounds, a higher concentration of IVA (2% in diethyl phthalate) was therefore used for the test.
(§3) Testing Procedure: A cyclohexylethyl carboxylic acid ester compound (1 g, a racemate or enantiomer) and IVA (1 g, 1-2%) were placed in two 1-ounce jars separately, which were both placed in a 1-gallon jar and capped for 24 hours to allow for the headspace saturation prior to the test. Each set of three test samples (i.e., three 1-gallone jars containing IVA and, respectively, a racemate and each of the two enantiomers) was presented in a blind, random order to internal panelists (consisting of trained females having a mean age of 40 years).
(§4) The panelists were instructed to take the steps of i) uncap a first jar; ii) place their noses immediately above the opening; iii) take short sniffs for 2-3 seconds; iv) cap the jar; v) repeat the steps for the other two jars in the same set; and vi) provide a rank of the odor intensity for a set of three jars using the intensity scales of 1 to 5, where 1 represents the “Least Intense” and 5 represents the “Most Intense”. The ranks of the odor intensity were then statistically analyzed using SPSS 15.0 for Windows. Freidman's non-parametric tests were used to analyze the ranked intensity for each test sample. Post hoc pair-wise comparisons were only conducted when the overall Chi-square omnibus test was statistically significant (p<0.05).

[2] = Bathroom malodor model, number of panelists ranking more intense (Example VI); details: S vs R
Method: as §3, §4
(§5) Establishment of Mold/Mildew and Bathroom Malodor Models: In addition to the sweat model established as above, the malodor models of mold/mildew and bathroom were prepared based on applicant's proprietary formulations for assessing the effectiveness of mold/mildew and bathroom malodor counteractants.
(§6) Testing Procedure: Test samples were prepared the same as above. The same procedure was carried out except the ranks of the odor intensity were recorded based on the numbers of the panelists who ranked the more intense.

[3] = Sweat malodor model (IVA), number of panelists ranking more intense (Example VI); details: for rank of the odor intensity (number of panelists who ranked the more intense): S vs R
Excerpt: as §1, §2, §3, §4, §6

[4] = Mold/mildew malodor model, number of panelists ranking more intense (Example VI); details: for rank of the odor intensity (number of panelists who ranked the more intense): Mold/Mildew, S vs R
Method: as §3, §4, §5, §6

[5] = Sweat malodor (1% IVA) intensity on Labeled Magnitude Scale, concentration series (Example VIII); details: for Malodor Intensity: LMS mean, 0-100; for % MOR (percent malodor reduction): vs Malodor Alone
Method: Determination of an Effective Concentration of (1S)-1-cyclohexylethyl acetate: To further identify an effective concentration of (1S)-1-cyclohexylethyl acetate in counteracting sweat malodor, (1S)-1-cyclohexylethyl acetate was prepared at a series of concentrations, ranging from 0.05% to 5% in diethyl phthalate, with corresponding vapor phase concentrations ranging from about 1.5 to about 150 μg per liter of air space.
Testing Procedure: The same procedures were carried out as in Examples V and VII to evaluate the effectiveness of different concentrations of (1S)-1-cyclohexylethyl acetate (“VEILEX™ 2S”) in counteracting sweat malodor modeled by 1% of IVA.

[6] = Mold/mildew malodor intensity on Labeled Magnitude Scale, concentration series (Example VII); details: for Malodor Intensity: LMS mean, 0-100; for % MOR (percent malodor reduction): vs Malodor Alone
Method: Determination of an Effective Concentration of (1R)-1-cyclohexylethyl butyrate: To further identify an effective concentration of (1R)-1-cyclohexylethyl butyrate in counteracting mold/mildew malodor, (1R)-1-cyclohexylethyl butyrate was prepared at a series of concentrations, ranging from 0.05% to 10% in diethyl phthalate, with corresponding vapor phase concentrations ranging from about 0.3 to about 60 μg per liter of air space.
Testing Procedure: The same procedure was carried out as in Example VI to evaluate the effectiveness of different concentrations of (1R)-1-cyclohexylethyl butyrate (“VEILEX™ 1R”) in counteracting mold/mildew malodor. The odor intensity was rated using Labeled Magnitude Scale (LMS) [Green, et al., Chemical Senses, 21(3), June 1996, 323-334]. Mean (“Malodor Intensity”) and standard error of the mean (“SE”, ±) were obtained, where 0 represents “No Sensation” and 100 represents “The Strongest Imaginable Malodor Sensation”. Percent malodor reduction (“% MOR”) represents the reduction in mean malodor intensity of the negative control (Malodor Alone) in the presence of an enantiomeric cyclohexylethyl carboxylic acid ester.

[7] = compared with enantiomeric counterpart

CC(O)C1CCCCC1 (racemic) [1-cyclohexylethanol M, 1-cyclohexylethanol, reference compound]
mean rank of the odor intensity ([1]; IVA (2%), test compound 1%): 2.58

CC(=O)OC(C)C1CCCCC1 (racemic) [1-cyclohexylethyl acetate M, 1-cyclohexylethyl acetate, reference compound]
mean rank of the odor intensity ([1]; IVA (1%), test compound 2%): 2.15

CCCC(=O)OC(C)C1CCCCC1 (racemic) [1-cyclohexylethyl butyrate M, 1-cyclohexylethyl butyrate, reference compound]
mean rank of the odor intensity ([1]; IVA (1%), test compound 5%): 2.50

C[C@@H](O)C1CCCCC1 [1-cyclohexylethanol R, (R)-1-cyclohexylethanol]
rank of the odor intensity (number of panelists who ranked the more intense) ([2]; test compound 1%): 13
mean rank of the odor intensity ([1]; IVA (2%), test compound 1%): 1.50
rank of the odor intensity (number of panelists who ranked the more intense) ([3]; IVA (2%), test compound 1%): 5
rank of the odor intensity (number of panelists who ranked the more intense) ([4]; test compound 1%): 13

C[C@H](O)C1CCCCC1 [1-cyclohexylethanol S, (S)-1-cyclohexylethanol]
rank of the odor intensity (number of panelists who ranked the more intense) ([2]; test compound 1%): 12
mean rank of the odor intensity ([1]; IVA (2%), test compound 1%): 1.92
rank of the odor intensity (number of panelists who ranked the more intense) ([3]; IVA (2%), test compound 1%): 7
rank of the odor intensity (number of panelists who ranked the more intense) ([4]; test compound 1%): 12

CC(=O)O[C@H](C)C1CCCCC1 [1-cyclohexylethyl acetate R, (R)-1-cyclohexylethyl acetate]
rank of the odor intensity (number of panelists who ranked the more intense) ([2]; test compound 2%): 12
mean rank of the odor intensity ([1]; IVA (1%), test compound 2%): 2.46
rank of the odor intensity (number of panelists who ranked the more intense) ([3]; IVA (1%), test compound 2%): 11
rank of the odor intensity (number of panelists who ranked the more intense) ([4]; test compound 2%): 11

CC(=O)O[C@@H](C)C1CCCCC1 [1-cyclohexylethyl acetate S, (1S)-1-cyclohexylethyl acetate]
rank of the odor intensity (number of panelists who ranked the more intense) ([2]; test compound 2%): 13
mean rank of the odor intensity ([1]; IVA (1%), test compound 2%): 1.38*
effectiveness in counteracting sweat malodor (in words) ([1]; compared with racemate and R enantiomer): particularly effective in counteracting sweat malodor
Malodor Intensity ([5]; 0.05%, 1.5 μg/L): 17.98
% MOR (percent malodor reduction) ([5]; 0.05%, 1.5 μg/L): 23%
Malodor Intensity ([5]; 0.1%, 3 μg/L): 18.29
% MOR (percent malodor reduction) ([5]; 0.1%, 3 μg/L): 23%
Malodor Intensity ([5]; 0.5%, 15 μg/L): 14.8
% MOR (percent malodor reduction) ([5]; 0.5%, 15 μg/L): 37%
Malodor Intensity ([5]; 1%, 30 μg/L): 14.15
% MOR (percent malodor reduction) ([5]; 1%, 30 μg/L): 42%
Malodor Intensity ([5]; 5%, 150 μg/L): 8.35
% MOR (percent malodor reduction) ([5]; 5%, 150 μg/L): 55%
rank of the odor intensity (number of panelists who ranked the more intense) ([3]; IVA (1%), test compound 2%): 2*
effectiveness in counteracting sweat malodor (in words) [3, 7]: significantly and specifically effective in counteracting sweat malodor
rank of the odor intensity (number of panelists who ranked the more intense) ([4]; test compound 2%): 14

CCCC(=O)O[C@H](C)C1CCCCC1 [1-cyclohexylethyl butyrate R, (1R)-1-cyclohexylethyl butyrate]
rank of the odor intensity (number of panelists who ranked the more intense) ([2]; test compound 5%): 13
mean rank of the odor intensity ([1]; IVA (1%), test compound 5%): 1.42
rank of the odor intensity (number of panelists who ranked the more intense) ([3]; IVA (1%), test compound 5%): 4
rank of the odor intensity (number of panelists who ranked the more intense) ([4]; test compound 5%): 5*
effectiveness in counteracting mold/mildew malodor (in words) [4, 7]: significantly and specifically effective in counteracting mold/mildew malodor
Malodor Intensity ([6]; 0.05%, 0.3 μg/L): 13.70
% MOR (percent malodor reduction) ([6]; 0.05%, 0.3 μg/L): 13%
Malodor Intensity ([6]; 0.1%, 0.6 μg/L): 11.86
% MOR (percent malodor reduction) ([6]; 0.1%, 0.6 μg/L): 24%
Malodor Intensity ([6]; 0.5%, 3 μg/L): 12.03
% MOR (percent malodor reduction) ([6]; 0.5%, 3 μg/L): 23%
Malodor Intensity ([6]; 1%, 6 μg/L): 11.66
% MOR (percent malodor reduction) ([6]; 1%, 6 μg/L): 22%
Malodor Intensity ([6]; 10%, 60 μg/L): 8.25
% MOR (percent malodor reduction) ([6]; 10%, 60 μg/L): 47%

CCCC(=O)O[C@@H](C)C1CCCCC1 [1-cyclohexylethyl butyrate S, (S)-1-cyclohexylethyl butyrate]
rank of the odor intensity (number of panelists who ranked the more intense) ([2]; test compound 5%): 12
mean rank of the odor intensity ([1]; IVA (1%), test compound 5%): 2.08
rank of the odor intensity (number of panelists who ranked the more intense) ([3]; IVA (1%), test compound 5%): 8
rank of the odor intensity (number of panelists who ranked the more intense) ([4]; test compound 5%): 20

Reference: US8506943B2, “Cyclohexylethyl carboxylic acid ester compositions and method for using the same for reducing malodors” (International Flavors & Fragrances Inc., priority 2009, dated 2013)
